In patent US6001880A, “Alkylenediamine derivative, anti-ulcer drug, and antibacterial drug” (Shiseido Co., Ltd., priority 1997, dated 1999):

Columns and labels:
[1] = MTT: Cell Damaging and Protecting Effect Test; assay type: cell-based, rabbit (male Japanese White); settings: rabbit, gastric corpus mucosa cells, final concentration 10^-4 M, smaller value is better, read-out: MTT: cell damaging rate
Source text: MTT: Cell Damaging and Protecting Effect Test
It is confirmed that there is no toxicity in cell level. Those having a toxicity in cell level are inappropriate as an anti-ulcer drug.
A male Japanese White rabbit (2.5 to 3 kg) was anesthetized to death by Nembutal™ and, immediately thereafter, its stomach was removed. The greater curvature of the stomach was incised so as to remove the stomach contents therefrom. After the mucosal surface was washed with HBSS (Hanks' Balanced Salt Solution), the stomach in ice-cooled HBSS was transferred to a laboratory. Then, after the pyloric antrum was removed, the gastric corpus mucosa was separated by a spatula and then minced into 2 to 3 mm^3 pieces in BME (Basal Medium Eagle). Thereafter, these pieces were shaken at 120 to 130 cycles/minute for 15 minutes at 37° C. in BME 60 ml containing 280 U/ml of dispase and 30 to 50 U/ml of collagenase. Here, the concentration of collagenase was appropriately changed for each lot in view of the state of cells. The pieces were washed twice with EBSS (Earle's Balanced Salt Solution) containing 1 mM of EDTA and then shaken in MEM (Minimum Essential Medium) containing 1 mM of EDTA at 37° C. for 5 minutes. Subsequently, they were shaken in the dispase and collagenase having the same concentrations as those mentioned above for 15 minutes so as to remove the supernatant and then further shaken at 37° C. for 50 to 60 minutes at 120 to 130 cycles/minute. Then, after being washed twice with HBSS, Ham F12 containing 2% of Ultrocer G™ was used to attain the concentration of 1×10^6 cells/ml. Thus formed suspension was dispensed in each well of a 96-well plate by 200 μl. The plate was incubated in the atmosphere composed of 5% CO2 and 95% air at 37° C. for three days so as to attain a confluent state and then subjected to MTT assay.
The sample compound was dissolved in DMSO so as to attain a concentration of 10^-2 M and then diluted with HBSS containing 2% of Ultrocer G™ so as to attain a final concentration of 10^-4 M. To each group, which 8 wells were used for, 10 μl of MTT reagent was added immediately after 100 μl of the medium in each well was exchanged for same volume of the resulting solution of the sample compound. After being incubated in an atmosphere composed of 5% CO2 and 95% air at 37° C. for 4 hours, thus formed solution was centrifuged and then its supernatant was discarded. Subsequently, 100 μl of 100% ethanol was added to the residue so as to dissolve MTT formazan. Then, the absorbance (OD: 570 to 630) was measured by a microplate reader. This method utilizes a phenomenon in which MTT is changed to MTT formazan only by mitochondria of living cells so as to change color.
The cell damaging or cell protecting effect of the sample compound at the final concentration of 10^-4 M was expressed as cell damaging rate (%) as follows:
cell damaging rate (%)=(1-(absorbance in sample group/absorbance in control
Accordingly, the smaller value is better in the cell damaging rate.

[2] = test system: stress ulcer formation in rats; assay: WIS: Restraint and Water Immersion Stress-Induced Ulcer Inhibition Test; assay type: in vivo, rat (male Crj:SD or Slc:SD); settings: 100 mg/kg oral, 10 minutes before 7 h restraint and water immersion (21° C.)
Protocol: WIS: Restraint and Water Immersion Stress-Induced Ulcer Inhibition Test
The degree of inhibition of the stress ulcer formation is tested.
Male Crj:SD or Slc:SD rats (6 to 7-week-old) were fasted overnight, but allowed free access to water. Each group has 5 to 8 of these rats. The sample compound was dissolved or suspended in an aqueous solution of 0.3% sodium carboxymethylcellulose or 0.05% Tween 80 and then was orally administered (100 mg/10 ml/kg). To a control group, the vehicle was administered. 10 minutes later, the rats were placed in a stress cage and immersed to the level of xipfoid process in a water bath (21° C.) for 7 hours. At the end of the stress, the rats were sacrificed by inhalation of ether or carbon dioxide. Then, the stomach of each was removed, inflated by injecting 10 ml of 5% formalin neutral buffer solution, and immersed in 1% formalin neutral buffer solution for 30 minutes or more to be fixed. The stomach was incised along the greater curvature and then the length of each erosion in the glandular portion was determined under dissecting microscope. The sum of the length of erosions per stomach was defined as ulcer index (UI).
The effect obtained when 100 mg/kg of the sample compound had been administered was expressed as ulcer formation inhibitory rate (%) as follows:
ulcer formation inhibitory rate (%)=(1-(UI in sample group/UI in control

[3] = test system: isolated gastric fundic gland; assay: CAP: Acid Secretion Inhibition Test In Vitro ([14C]-aminopyrine uptake); assay type: cell-based, rabbit (male Japanese White); settings: Oryctolagus cuniculus; final concentration 10^-5 M; histamine 10^-5 M stimulation; read-out: CAP: acid secretion inhibitory rate
Protocol: CAP: Acid Secretion Inhibition Test In Vitro
The acid secretion inhibitory activity in a cell level is studied. It can also be used for studying the mechanism of the effect.
First, an isolated gastric fundic gland sample was prepared. Namely, a male Japanese White rabbit (2.5 to 3 kg) was anesthetized to death with Nembutal™ and then the abdomen was incised. Immediately thereafter, the stomach was removed and, after its pyloric and cardiac antrum were severed, incised along its greater curvature into two sheets. The gastric contents adhering to the mucosal surface was washed out with ice-cooled PBS (-) and then carefully washed therein. The gastric wall was spread on a cork board with its mucosal surface facing up and the feed and mucus thereon were completely removed with sterile gauze. The mucosa was separated therefrom by a spatula and then collected in ice-cooled PBS (-). After being washed twice with PBS (-), the mucosa was minced into 2-3 mm^3 pieces by scissors. These pieces were further washed twice with a nutrient solution. The nutrient solution comprises 132.4 mM of NaCl, 5.4 mM of KCl, 5 mM of Na2 HPO4. 12H2 O, 1 mM of NaH2 PO4.2H2 O, 1.2 mM of MgSO4, 1 mM of CaCl2, 25 mM of HEPES, 2 mg/ml of glucose, and 1 mg/ml of BSA.
Into 70 ml of the nutrient solution containing 1 mg/ml of collagenase, minced mucosal pieces were dispersed and intensely stirred in a conical flask with a stirrer at 37° C. for 40 to 60 minutes. During this period, 100% O2 was sprayed on the nutrient solution surface and the pH was appropriately measured such that it was immediately adjusted to pH 7.4, when the value was therebelow, with a base. The nutrient solution was added to the reaction solution so as to attain the total amount of about 200 ml. After being filtered through a mesh, the suspension was divisionally introduced into 50 ml centrifuge tubes and left for 15 minutes such that gastric fundic gland was deposited. The supernatant was repeatedly removed by an aspirator, dispersed in the nutrient solution, and then left such that the gastric fundic gland was washed three times. At this time, without using a pipette, the suspension was alternately introduced into two centrifuge tubes so as to effect dispersion. The number of cells was counted under microscope and adjusted to 1.6×10^6 cells/ml.
Then, [^14 C]-aminopyrine uptake test was performed. After an Eppendorf tube was weighed, 10 μl (final concentration: 10^-5 M) of histamine dissolved in the above-mentioned nutrient solution, 10 μl (final concentration: […]) of the test compound dissolved in DMSO, and 10 μl (final concentration: 0.05 μCi/ml) of [^14 C]-aminopyrine diluted with the nutrient solution were introduced therein and then 970 μl of the isolated gastric fundic gland suspension prepared above was added thereto. Subsequently, this mixture was shaken at 37° C. for 40 minutes at 125 cycles/minute. After being centrifuged for 30 seconds, 200 μl of its supernatant was collected into a mini-vial, while the rest was removed by an aspirator. The gland pellet was completely dried as the tube with its lid being opened was kept for one night in a drying oven at 80° C. and then the lid was closed and the weight was determined at room temperature. Then 100 μl of 1N KOH was added thereto and the tube with its lid being closed was treated at 60° C. for 1 to 2 hours so as to dissolve the pellet. Then, the contents thereof were transferred to a mini-vial. Into the mini-vial containing the supernatant or gland pellet, 4 ml of Atomlite™ was added and then the radioactivity was measured by a liquid scintillation counter. Here, after the radioactivity of the gland pellet was corrected by using a sample in which 20 mM of NaSCN was added so as to cancel the hydrogen ion concentration gradient, the integration ratio of aminopyrine specifically trapped by the gland pellet was calculated. This experiment was performed in duplicate.
Here, its principle will be briefly explained. […]

Row | SMILES | cytotoxicity at 4 h, 100 µM [1] | WIS: ulcer formation inhibitory rate [2] | inhibition at 10 µM [3]
1 | CC(C)=CCOc1cccnc1C(=O)NCCN(C(C)C)C(C)C [Example 55] | 20% | 97% | 
2 | CC(C)=CCOc1cccnc1C(=O)NCCN(C)C [Example 53] | 1% | 67% | 
3 | CCN(CC)CCNC(=O)c1ncccc1OCC=C(C)C [Example 54] | -10% | 78% | 
4 | CCN(CC)CCNC(=O)c1cc(OC)c(OC)c(OCC=C(C)C)c1 [Example 40] | -2% | 79% | 
5 | CCN(CC)CCNC(=O)c1cccnc1OCC=C(C)C [Example 47] |  | 80% | 
6 | CCN(CC)CCNC(=O)c1cc(OCC=C(C)C)c(OCC=C(C)C)c(OCC=C(C)C)c1 [Example 23] |  | 81% | 
7 | CC(C)N(CCNC(=O)c1ccc(N(C)C)cc1)C(C)C [Example 70] |  | 66% | 101%
8 | CC(C)N(CCNC(=O)c1ccc(C(C)(C)C)cc1)C(C)C [Example 61] |  | 94% | 97.3%
9 | CC(C)N(CCNC(=O)c1ccc(C(=O)NC(C)(C)C)cc1)C(C)C [Example 67] | -35% | 77% | 
10 | COc1cc(C(=O)NCCN(C)C)cc(OC)c1OC/C=C(\C)CCC=C(C)C [Example 43] | 1% | 88% | 
11 | CCN(CC)CCNC(=O)c1ccc(OC/C=C(\C)CC/C=C(\C)CCC=C(C)C)cc1 [Example 6] |  | 52% | 97.9%
12 | CC(C)N(CCNC(=O)c1ccc2c(c1)OCO2)C(C)C [Example 58] | 29% | 96% | 
13 | CC(C)=CCOc1cc(C(=O)NCCN(C)C)cc(OCC=C(C)C)c1OCC=C(C)C [Example 24] |  | 70% | 
14 | CC(C)=CCC/C(C)=C/COc1ccc(C(=O)NCCN(C(C)C)C(C)C)cc1CC(C)C [Example 34] |  | 48% | 100%
15 | CC(C)N(CCNC(=O)c1cc(C(C)(C)C)cc(C(C)(C)C)c1)C(C)C [Example 65] | 5% | 86% | 
16 | CCN(CC)CCNC(=O)c1ccc(OC/C=C(\C)CCC=C(C)C)cc1 [Example 4] |  | 83% | 

Row | SMILES | cytotoxicity at 4 h, 100 µM [1] | WIS: ulcer formation inhibitory rate [2] | inhibition at 10 µM [3]
17 | CC(C)=CCC/C(C)=C/COc1ccc(C(=O)NCCN(C)CC(C)C)cc1 [Example 10] |  | 65% | 
18 | CC(C)N(CCNC(=O)c1ccc(NC(C)(C)C)cc1)C(C)C [Example 68] | -58% | 79% | 
19 | CCN(CC)CCNC(=O)c1cccc(OC/C=C(\C)CCC=C(C)C)c1 [Example 1] |  | 72% | 
20 | CCCCCCCCc1ccc(C(=O)NCCN(C(C)C)C(C)C)cc1 [Example 63] |  | 49% | 101%
21 | CC(C)=CCC/C(C)=C/CNc1ccc(C(=O)NCCN(C(C)C)C(C)C)cc1 [Example 26] |  | 49% | 100%
22 | CCCCN(C)CCNC(=O)c1ccc(OC/C=C(\C)CCC=C(C)C)cc1 [Example 11] |  | 45% | 100%
23 | CC(C)=CCOc1ccc(C(=O)NCCN(C)C)cn1 [Example 44] |  | 30% | 
24 | CCN(CC)CCNC(=O)c1ccc(OC/C=C(\C)CCC=C(C)C)c(OC/C=C(\C)CCC=C(C)C)c1 [Example 18] |  | 37% | 
25 | CCN(CC)CCNC(=O)c1cc(OC/C=C(\C)CCC=C(C)C)cc(OC/C=C(\C)CCC=C(C)C)c1 [Example 19] |  | 69% | 
26 | CC(C)=CCC/C(C)=C/COc1ccc(C(=O)NCCN(C)C)cn1 [Example 49] |  | 38% | 
27 | CC(C)COc1ccc(C(=O)NCCN(C(C)C)C(C)C)cc1 [Example 60] |  | 98% | 97.3%
28 | CCN(CC)CCNC(=O)c1cccnc1OC/C=C(\C)CCC=C(C)C [Example 52] |  | 57% | 101%
29 | CC(C)=CCOc1ncccc1C(=O)NCCN(C)C [Example 45] |  | 41% | 
30 | CC(C)=CCC/C(C)=C/COc1ccc(C(=O)NCCN(C)C(C)(C)C)cc1 [Example 12] |  | 34% | 99.9%
31 | CCN(CC)CCNC(=O)c1cc(OC)c(OCC=C(C)C)c(OC)c1 [Example 36] |  | 88% | 
